The values that follow come from US20250115571A1, “OXOPIPERAZINE DERIVATIVES” (Inthera Bioscience AG, priority 2017, published 2025).

The subject of assay [1] is HCT116 human colon cancer cells. Briefly: Cell-derived xenograft mouse model for colorectal cancer (HCT116 CDX). It is filed as in vivo. As to conditions: for T/C (tumor-to-control ratio, volume/volume): day 37. How it is done: Female BALB/c nude mice (8-9 weeks of age) were injected with HCT116 human colon cancer cells. The cells were inoculated subcutaneously into the left flank of 48 mice. When tumors reached a mean volume of approximately 100 mm^3, mice were randomly assigned to eight treatment groups of each six mice (TABLE 14). Body weights were measured three times weekly prior to the initiation of dosing and daily thereafter. Tumor burden was assessed by caliper measurement twice weekly. Dosing breaks were applied when tolerability issues arose (body weight loss>10%). The study was terminated four weeks post first dosing. The experiment was performed in the Crown Bioscience Ltd. (Beijing) testing facility (Ground Floor, Light Muller Building, Changping Sector of Zhongguancun Scientific Park, No. 21 Huoju Road, Changping District, Beijing, CHN).

A further assay relates to SNU-5. Description: 5-day cell proliferation assay (CTG). As to conditions: Homo sapiens, 120 h, SNU-5, Stomach/Gastric. It is filed as cell-based. The protocol: (§1) For screening using a proliferation assay, the cells used were cultured at 37° C. with 5% CO2, except for those being cultured with L-15 medium (37° C. and 100% air, TABLE 7). Compound stock solutions (10 mM) were made in sterile water, aliquoted and stored at room temperature. Cisplatin was used as reference Control. Plastic consumables, culture media and supplements were purchased from well-known suppliers (TABLE 8).
(§2) Cell seeding (day −1). When necessary, cells were trypsinized using standard methods (see e.g. example 01). Cells were collected and resuspended in 5-6 mL of appropriate culture medium, counted and diluted to the needed density. Fifty-four μl (microliter) cells were seeded per well in a 384-well plate. Extra four wells per cell line were seeded on an additional plate for Day 0 reading (baseline cell density). Cells were incubated at 37° C. overnight.
(§3) Compound treatment and Day 0 reading (day 0). Tenfold final concentration of test compounds and Cisplatin were prepared in cell culture media (work dilutions). Six μl of work dilution solutions were dispensed into the corresponding wells in 384-well plates to bring the total volume up to 60 μl. Conditions were tested in triplicate. The plates were then incubated at 37° C. for five days. For the day 0 reading, 30 μl of CTG and 6 μl cell culture medium were added to the day 0 plates, contents mixed for 2 min on a plate shaker, and the plates incubated for 10 min at room temperature in the dark. Luminescence was recorded on an EnVision Multi Label Reader (2104-0010A, PerkinElmer, USA).
(§4) Endpoint CTG reading (day 5). The amounts of cells in the plates was determined by endpoint CTG-test. Thirty μl of CTG were added to the 60 μl of cell culture per well, contents mixed for 2 min on a plate shaker, and the plates incubated for 10 min at room temperature in the dark. Luminescence was recorded on an EnVision Multi Label Reader.
(§5) Data analysis. Fifty percent growth inhibition concentrations (GI50) were calculated based on percentage of control data (untreated cells) from each cell line (TABLE 5 (this example) and TABLE 6). Curves were fitted using a nonlinear regression model with a sigmoidal dose response. Examples of obtained curves are depicted in FIG. 2A-2F.

Another assay has as its system SW48. Briefly: 5-day cell proliferation assay (CTG). As to conditions: Homo sapiens, 120 h, SW48, Colorectal. It is filed as cell-based. The protocol:
as §1, §2, §3, §4, §5

Another assay concerns SNU-16. Briefly: 5-day cell proliferation assay (CTG). The assay is classed as cell-based. As to conditions: Homo sapiens, 120 h, SNU-16, Stomach/Gastric. The protocol:
as §1, §2, §3, §4, §5

A further assay deals with MRC-5. Description: 5-day cell proliferation assay (CTG). As to conditions: Homo sapiens, MRC5, 120 h, MRC-5, Lung. The assay is classed as cell-based. How it is done:
as §1, §2, §3, §4, §5

Assay [2] relates to HCT116. Briefly: 5-day cell proliferation assay (CTG). As to conditions: Homo sapiens, HCT-116, 120 h, HCT116, Colorectal. It is filed as cell-based. How it is done:
as §1, §2, §3, §4, §5

A further assay relates to HDFA (fibroblast). Briefly: 5-day cell proliferation assay (CTG). It is filed as cell-based. As to conditions: Homo sapiens, 120 h, Skin, highest tested concentration 10 μM. The protocol:
as §1, §2, §3, §4, §5

The subject of the next assay is HT-29. Briefly: 5-day cell proliferation assay (CTG). It is filed as cell-based. As to conditions: Homo sapiens, 120 h, HT-29, Colorectal. The protocol: as §1, §2, §3, §4, §5
The next assay concerns SW620. Description: 5-day cell proliferation assay (CTG). The assay is classed as cell-based. As to conditions: Homo sapiens, SW-620, 120 h, SW620, Colorectal. How it is done: as §1, §2, §3, §4, §5
A further assay concerns RPWE-1. Briefly: 5-day cell proliferation assay (CTG). As to conditions: Homo sapiens, 120 h, RPWE-1 (Table 6: RWPE-1), Prostate. The assay is classed as cell-based. The protocol:
as §1, §2, §3, §4, §5

The subject of the next assay is HS 746.T. Description: 5-day cell proliferation assay (CTG). The assay is classed as cell-based. As to conditions: Homo sapiens, Hs746T, 120 h, Stomach/Gastric. How it is done: as §1, §2, §3, §4, §5
The next assay has as its system SW948. Description: 5-day cell proliferation assay (CTG). The assay is classed as cell-based. As to conditions: Homo sapiens, 120 h, SW948, Colorectal. The protocol: as §1, §2, §3, §4, §5
The subject of the next assay is HS-5. Description: 5-day cell proliferation assay (CTG). As to conditions: Homo sapiens, HS5, 120 h; HS-5, 5-day cell proliferation. It is filed as cell-based. The protocol: as §1, §2, §3, §4, §5
Assay [3] relates to HCT116. Description: 9-day colony survival assay (CFA). It is filed as cell-based. As to conditions: Homo sapiens, HCT-116, 216 h, HCT116 (colon), read-out: GI50 (50% growth inhibition).
Another assay relates to A549. Briefly: 9-day colony survival assay (CFA). The assay is classed as cell-based. As to conditions: Homo sapiens, 216 h, A549 (lung), read-out: GI50 (50% growth inhibition).

By GI50 is commonly meant the concentration giving 50% growth inhibition. As for `CC(C)C[C@@H]1NCCN([C@@H](CC(C)C)C(=O)N2CCC3(C[C@@H]2C)OCC(CN2CCCC2)CO3)C1=O` (stereo partly drawn) [Compound 258, (3S)-1-[(2S)-4-methyl-1-oxo-1-[(3s,6s,8S)-8-methyl-3-(pyrrolidin-1-ylmethyl)-1,5-dioxa-9-azaspiro[5.5]undec-an-9-yl]pentan-2-yl]-3-(2-methylpropyl)piper-azin-2-one (^≠), isomer Z], the “Tumor Size day 37 (Mean ± SEM)” value in [1] (3 mg/kg, p.o. QD) is reported as 436.2 ± 58.9 mm^3; in [1] (6 mg/kg, p.o. QD), 253.2 ± 39.2 mm^3; in assay [1] (20 mg/kg, p.o. BIW) it was 696.8 ± 93.7 mm^3. The “p vs. Group-2 (Avastin, 10 mg/kg, BIW)” value was “Group-2 vs. Group-5, p = 0.028;” in [1] (3 mg/kg, p.o. QD); “Group-2 vs. Group-4, p = 0.001;” in assay [1] (6 mg/kg, p.o. QD); “Group-2 vs. Group-3, p = 0.865;” in assay [1] (20 mg/kg, p.o. BIW). Also, the “T/C (tumor-to-control ratio, volume/volume)” value in assay [1] (3 mg/kg, p.o. QD) was 36.7%; in assay [1] (6 mg/kg, p.o. QD), 21.3%; in assay [1] (20 mg/kg, p.o. BIW), 58.7%. Moreover, the GI50 with SNU-5 was 4 nM; in the assay with SW48, 9 nM; in the assay with SNU-16 it was 13 nM; in the assay on MRC-5 it was 12 nM; in the assay with HCT116 [2], 5 nM; in the assay with HDFA (fibroblast) it was greater than 10 µM. Further, the GI50 with HT-29 was determined as 4 nM; in the assay with SW620 it was 4 nM; in the assay with RPWE-1, 4 nM; in the assay with HS 746.T, 8 nM; in the assay with SW948 it was 10 nM; with HS-5, 5 nM. Moreover, the 50% growth inhibitory concentration (GI50) in the assay on HCT116 [3] is 1.5 nM; in the assay on A549, 5 nM.
For `CC(C)C[C@@H]1NCCN([C@@H](CC(C)C)C(=O)N2CCC3(C[C@@H]2C)OCC(CN2CCC4(CC2)CC4)CO3)C1=O` (stereo partly drawn) [Compound 279, (3S)-1-[(2S)-4-methyl-1-oxo-1-[(3s,6s,8S)-3-{6-azaspiro[2.5]octan-6-ylmethyl}-8-methyl-1,5-dioxa-9-azaspiro[5.5]undec-an-9-yl]pentan-2-yl]-3-(2-methylpropyl)piper-azin-2-one (^≠), isomer Z], the “Tumor Size day 37 (Mean ± SEM)” value in [1] (6 mg/kg, p.o. QD) was found to be 1064.0 ± 141.1 mm^3. Moreover, in assay [1] (6 mg/kg, p.o. QD), the “p vs. Group-2 (Avastin, 10 mg/kg, BIW)” value is “Group-2 vs. Group-6, p = 0.070;”. In assay [1] (6 mg/kg, p.o. QD), the “T/C (tumor-to-control ratio, volume/volume)” value stood at 89.6%. Besides, the concentration for 50% growth inhibition (GI50) with SNU-5 is 3 nM; in the assay on SW48, 6 nM; with SNU-16, 10 nM; in the assay with MRC-5, 10 nM; in the assay with HCT116 [2] it was 3 nM; in the assay with HDFA (fibroblast), greater than 10 µM. For the same compound, the 50% growth inhibitory concentration (GI50) in the assay on HT-29 came out at 4 nM; in the assay on SW620, 2 nM; in the assay on RPWE-1, 3 nM; in the assay on HS 746.T, 5 nM; with SW948 it was 3 nM; with HS-5 it was 3 nM. In addition, the values for the GI50 with HCT116 [3] and with A549 were 1 nM and 5 nM, respectively.
As for `CC(C)C[C@@H]1NCCN([C@@H](CC(C)C)C(=O)N2CCC3(C[C@@H]2C)OCC(CN2CCC2)CO3)C1=O` (stereo partly drawn) [Compound 284, (3S)-1-[(2S)-4-methyl-1-oxo-1-[(3s,6s,8S)-3-(azetidin-1-ylmethyl)-8-methyl-1,5-dioxa-9-azaspiro[5.5]undec-an-9-yl]pentan-2-yl]-3-(2-methylpropyl)piper-azin-2-one (^≠), isomer Z], the “Tumor Size day 37 (Mean ± SEM)” value in assay [1] (3 mg/kg, p.o. QD) came out at 827.4 ± 125.7 mm^3; in assay [1] (6 mg/kg, p.o. QD), 942.0 ± 114.9 mm^3. Also, the “p vs. Group-2 (Avastin, 10 mg/kg, BIW)” value is “Group-2 vs. Group-8, p = 0.509;” in assay [1] (3 mg/kg, p.o. QD) and “Group-2 vs. Group-7, p = 0.165;” in assay [1] (6 mg/kg, p.o. QD). In addition, the “T/C (tumor-to-control ratio, volume/volume)” value is 69.7% in assay [1] (3 mg/kg, p.o. QD) and 79.3% in [1] (6 mg/kg, p.o. QD). The GI50 in the assay on SNU-5 is 6 nM; with SW48, 14 nM; in the assay on SNU-16, 22 nM; in the assay with MRC-5, 25 nM; with HCT116 [2] it was 9 nM; with HDFA (fibroblast) it was greater than 10 µM. In addition, the 50% growth inhibitory concentration (GI50) in the assay with HT-29 was 7 nM; with SW620, 7 nM; with RPWE-1, 10 nM; in the assay on HS 746.T, 14 nM; with SW948, 12 nM; in the assay on HS-5, 10 nM. Besides, the GI50 in the assay on HCT116 [3] came to 1.5 nM; in the assay with A549, 10 nM.
